One data set deals with ES2 cells. As to the kind of experiment: AlamarBlue cell viability assay. Particulars: Homo sapiens, ES-2, incubation 72 h. The data set is classed as cell-based. The protocol:
Cell Culture. Human ovarian cancer cell line ES2 was purchased from the American Type Culture Collection, and cells maintained in a humidified incubator at 37°C and 5% CO2 in Dulbecco’s Modified Eagle Medium (DMEM, high glucose, Pyruvate, No Glutamine) (Gibco, cat#21969035), 10% FCS, 1% L-Glutamine (200 mM, ThermoFisher, cat#25-030-081), 1% Pen/Strep (ThermoFisher, cat# […]
AlamarBlue cell viability assay. ES2 cells were plated in sextuplicate wells in a 96-well plate at 3000 cells per well. Compounds were made up as 10 mM stocks in DMSO and added to the cells after 24 h at a range of concentrations (100 µM, 30 µM, 10 µM, 3 µM, 1 µM, 0.3 µM, 0.1 µM, 0.03 µM, 0.01 µM, DMSO only) in 100µl. As a background control 6 wells were plated with media with added DMSO and without cells. After 72 h, 11µl (10%) alamarBlue cell viability reagent (ThermoFisher, cat# DAL1025) was added to each well, including the background control. The plate was incubated at 37°C for 4 h after which the absorbance of the wells was measured with a standard spectrophotometer (Tecan Spark 20M) read at 540nm excitation and 580nm emission wavelength. For each sample the background signal intensity was subtracted from the sample signal intensity and then normalized to the DMSO […]
Subsequent analysis was performed on GraphPad Prism 9 software where the concentrations were converted to a logarithmic scale to which a non -linear regression curve was fitted using the log(inhibitor) vs normalized response with a variable slope model to calculate EC50 values.
Figure S3. EC50 values for compounds 3a – 3n in ES2 cells. Values calculated from 6 technical replicates following incubation for 72 h.
(§1) (1 picture or pasted object on this page, not shown here)

The nature of data set [1]: LC-MS based glutathione (GSH) reactivity assay. The data set is classed as in vitro ADME. Particulars: for conversion to GS-adduct within 5 min / extent of conversion to GS-adducts (in words) / conversion to GS-adduct over 24 h: GSH, ACN:PBS buffer (1:1), 37 °C; for conversion to GS-adduct within 5 min / conversion to GS-adduct over 24 h: LC-MS 254 nm; for extent of conversion to GS-adducts (in words): runs at 5 min, 2 h; for extent of conversion to GS-adducts (in words) / conversion to GS-adduct over 24 h: 24 h; for GSH reactivity compared with the electronically similar tag: 3b vs 3a, 3f vs BADY, 3g vs 3e, data not shown. The protocol: LC-MS Assay: To 0.5 ml of GSH (50 mmol) in assay buffer (100 mM PBS in H2O) at 37 °C, 0.5 ml of the diyne tag (5 mmol) in CH3CN was added to give a final concentration of 25 mmol and 2.5 mmol of GSH and diyne tags respectively. A magnetic stirbar was added to the assay mixture and stirred at 37 °C. Aliquots from the assay mixture were pipetted out and diluted for LC-MS (ESI+) submissions at 5 min, 2 h and 24 h time points. The chromatogram peaks at 254 nm were extracted to pick the UV-active [M+H]+ values corresponding to the unreacted tags and GS-Tag adducts. Relative intensity (or % conversion) of GS-Tag adduct compared to the unreacted tag for individual LC -MS run was calculated by taking the percentage of mAUGS-Tag divided by mAUGS-Tag + mAUunreacted tag (if A -> B, then % conversion = B/A+B). When [M+H]+ peak of the unreacted tag was below detectable limits, adduct […]
Figure S4. Overlay of the UV-active chromatograms extracted at 254 nm from the LC-MS runs of 3a, 3d, BADY, 3e, 3j and 3k. The chromatograms for each tag at 5 min (black), 2 h (green), 24 h (red) are overlaid. Minimal (3a, BADY), partial (3e) and full (3d, 3j and 3k) conversion were observed which correlated with the ring electronics. […]
are overlaid in a single graph. Conversion is deemed complete when the tag (M) was below detectable limits. * Tags isolated as a mixture of hetero-and homodimers or insoluble in the assay buffer (3i and 3c) were not included in the study. Tags 3b, 3f and 3g have not been shown as their reactivities were similar to the electronicall y similar 3a, BADY and 3e respectively. […]
as §1

Data set [2] can be described thus: NMR based GSH-reactivity assay. The data set is classed as in vitro ADME. Particulars: CD3CN:PBS 1:1, 37 °C. The protocol: NMR Assay: To 0.5 ml of assay buffer (1:1 CD3CN : 100 mM PBS in H2O), the individual diyne tags (10 mmol) were added, transferred to an NMR tube and 1H NMR spectra was acquired. To another 0.5 ml of the assay buffer, GSH (100 mmol) was added, which was then transferred to the NMR tube containing the buffer solution of the tags. The solution was mixed by inverting the tube several times. A final solution of 5 mmol tag and 50 mM GSH was achieved, a magnetic stirbar was added to the tubes and the NMR tubes were left on a stirplate at 37 °C. 1H NMR was recorded at 310 K (37 °C) after ~5 min and 24 h of reaction set up.
as §1

“Also recorded” adds a separate entry of the source. Bounds are passed on as bounds.

In the case of `COC(=O)c1ccc(C#CC#Cc2ncccn2)nc1` [3 j], the response with ES2 cells was half-maximal at 0.54 µM (EC50). Further, in data set [1], the “conversion to GS-adduct within 5 min” value is “reacted completely; also recorded: complete conversion” and the “extent of conversion to GS-adducts (in words)” value (“extent of conversion” below) is “complete conversion”. Besides, in data set [1] (listed as 3j), the “conversion to GS-adduct within 5 min” value is “full conversion” and the “extent of conversion” value was “full”.

For the compound `COC(=O)c1ccc(C#CC#Cc2cncn2C)cc1` [3 b], the EC50 (usually the concentration that produces a half-maximal response) with ES2 cells is no less than 100 µM. Besides, the “GSH reactivity compared with the electronically similar tag” value in data set [1] was “similar”.

On to `C(C#Cc1ccccc1)#Cc1ccccc1` [BADY, reference compound], for which, in the data set on ES2 cells, the EC50 was no less than 100 µM. For the same compound, the “change of 1H NMR 24 h post GSH addition” value in data set [2] is on record as “no changes”. In data set [1], the “conversion to GS-adduct over 24 h” value is on record as 1–2% and the “extent of conversion” value is reported as “Minimal”.

For the compound `COC(=O)c1ccc(C#CC#Cc2cccnc2)cc1` [3 f], the EC50 with ES2 cells is no less than 100 µM. In data set [1], the “GSH reactivity compared with the electronically similar tag” value is reported as “similar”.

Regarding `COC(=O)c1ccc(C#CC#Cc2nccs2)cc1` [3 d], in data set [1], the “conversion to GS-adduct within 5 min” value is reported as roughly 25%, the “conversion to GS-adduct over 24 h” value is given as “reacted completely” and the “extent of conversion” value was “complete conversion”. Besides, the “extent of conversion” value in data set [1] (listed as 3d) is on record as “full”.

The compound `COC(=O)c1ccc(C#CC#Cc2cncn2C)n1C` [3 a] displayed a half-maximal effective concentration (EC50) in the data set on ES2 cells of no less than 100 µM. Moreover, the “change of 1H NMR 24 h post GSH addition” value in data set [2] is listed as “no changes”. For the same compound, in data set [1], the “conversion to GS-adduct over 24 h” value is listed as 1–2% and the “extent of conversion” value is recorded as “Minimal”.

The compound `COC(=O)c1ccc(C#CC#Cc2ccncc2)cc1` [3 g] gave an EC50 in the data set on ES2 cells of 24.1 µM. The “GSH reactivity compared with the electronically similar tag” value in data set [1] was “similar”.

`COC(=O)c1ccc(C#CC#Cc2ccccn2)cc1` [3 e] had a half-maximal effective concentration (EC50) with ES2 cells of 17.6 µM. Besides, in data set [1], the “conversion to GS-adduct over 24 h” value is listed as roughly 25% and the “extent of conversion” value is given as “partial”.

Turning to `COC(=O)c1ccc(C#CC#Cc2ccccn2)nc1` [3 i], it took 1.63 µM to reach a half-maximal effect in the data set on ES2 cells (EC50).
